# What was measured:
# Type in all cases: in vivo
# [1] = test system: kochia (Bassia scoparia); assay: Test A preemergence soil spray, visual injury rating 0-100; details: 10 days
# Method in brief: (§1)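 Directed preemergence spray onto seeded soil or postemergence spray onto 2-10 cm plants (loam plus sand); compound carried in surfactant-containing non-phytotoxic solvent. Injury rated by eye after 10 d greenhouse growth; 0 = no effect, 100 = complete control.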
# [2] = test system: ryegrass, Italian (italian ryegrass, Lolium multiflorum); assay: as above; details: 10 days
# Method in brief: as §1
# [3] = test system: wheat (Triticum aestivum); assay: as above; details: 10 days
# Method in brief: as §1
# [4] = test system: corn (Zea mays); assay: as above; details: 10 days
# Method in brief: as §1
# [5] = test system: ragweed (common ragweed, Ambrosia artemisiifolia); assay: as above; details: 10 days
# Method in brief: as §1
# [6] = test system: soybean (Glycine max); assay: as above; details: 10 days
# Method in brief: as §1
# [7] = test system: green foxtail (Setaria viridis); assay: as above; details: 10 days
# Method in brief: as §1
# [8] = test system: oat, wild (wild oat, Avena fatua); assay: as above; details: 10 days
# Method in brief: as §1
# [9] = test system: barnyardgrass (Echinochloa crus-galli); assay: as above; details: 10 days
# Method in brief: as §1
# [10] = test system: palmer (palmer amaranth, palmer pigweed, Amaranthus palmeri); assay: as above; details: 10 days
# Method in brief: as §1
# [11] = test system: blackgrass (Alopecurus myosuroides); assay: as above; details: 10 days
# Method in brief: as §1
# [12] = test system: rice (Oryza sativa); assay: Test B flooded paddy test, visual plant response rating 0-100; details: 250 g ai/ha, Flood, applied to paddy water, evaluated after 13 days
# Method in brief: (§2)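 Plants were grown to the 2-leaf stage, then pots were flooded to 3 cm above the soil and compound was applied directly to the paddy water, with that depth kept throughout.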
# [13] = test system: sedge, umbrella (small-flower umbrella sedge, Cyperus difformis); assay: as above; details: 250 g ai/ha, Flood, applied to paddy water, evaluated after 13 days
# Method in brief: as §2
# [14] = test system: ducksalad (Heteranthera limosa); assay: as above; details: 250 g ai/ha, Flood, applied to paddy water, evaluated after 13 days
# Method in brief: as §2
# [15] = test system: barnyardgrass (Echinochloa crusgalli); assay: as above; details: 250 g ai/ha, Flood, applied to paddy water, evaluated after 13 days
# Method in brief: as §2
# [16] = test system: galium (catchweed bedstraw, Galium aparine); assay: Test A postemergence application, visual injury rating 0-100
# Method in brief: as §1
# [17] = test system: kochia (Bassia scoparia); assay: as above
# Method in brief: as §1
# [18] = test system: ryegrass, Italian (italian ryegrass, Lolium multiflorum); assay: as above
# Method in brief: as §1
# [19] = test system: wheat (Triticum aestivum); assay: as above
# Method in brief: as §1
# [20] = test system: corn (Zea mays); assay: as above
# Method in brief: as §1
# [21] = test system: ragweed (common ragweed, Ambrosia artemisiifolia); assay: as above
# Method in brief: as §1
# [22] = test system: soybean (Glycine max); assay: as above
# Method in brief: as §1
# [23] = test system: horseweed (Erigeron canadensis); assay: as above
# Method in brief: as §1
# [24] = test system: green foxtail (Setaria viridis); assay: as above
# Method in brief: as §1
# [25] = test system: oat, wild (wild oat, Avena fatua); assay: as above
# Method in brief: as §1
# [26] = test system: barnyardgrass (Echinochloa crus-galli); assay: as above
# Method in brief: as §1
# [27] = test system: palmer (palmer amaranth, palmer pigweed, Amaranthus palmeri); assay: as above
# Method in brief: as §1
# [28] = test system: blackgrass (Alopecurus myosuroides); assay: as above
# Method in brief: as §1
# [29] = 62 g ai/ha, 0 = no effect, 100 = complete control
# [30] = 62 g ai/ha, postemergence, 10 days, 0 = no effect, 100 = complete control
# [31] = Postemergence, 16 g ai/ha, greenhouse 10 days, 0 no effect, 100 complete control
smiles,measurement,setting,value
CC1(C(=O)NC2CC=C(C(=O)NS(=O)(=O)C(C)(C)C)C2)CN(c2cc(F)cc(F)c2)C(=O)O1 (racemic) [Compound 91],Kochia plant response rating,"[1]; 16 g ai/ha, 0 to 100 scale",0
same,Kochia plant response rating (0-100),[1]; [29],0
same,"Ryegrass, Italian plant response rating","[2]; 16 g ai/ha, 0 to 100 scale",0
same,"Ryegrass, Italian plant response rating (0-100)",[2]; [29],0
same,Wheat plant response rating,"[3]; 16 g ai/ha, 0 to 100 scale",0
same,Wheat plant response rating (0-100),[3]; [29],0
same,Corn plant response rating,"[4]; 16 g ai/ha, 0 to 100 scale",0
same,Corn plant response rating (0-100),[4]; [29],0
same,Ragweed plant response rating,"[5]; 16 g ai/ha, 0 to 100 scale",0
same,Ragweed plant response rating (0-100),[5]; [29],0
same,Soybean plant response rating,"[6]; 16 g ai/ha, 0 to 100 scale",0
same,Soybean plant response rating (0-100),[6]; [29],0
same,"Foxtail, Green plant response rating","[7]; 16 g ai/ha, 0 to 100 scale",0
same,"Foxtail, Green plant response rating (0-100)",[7]; [29],0
same,"Oat, Wild plant response rating","[8]; 16 g ai/ha, 0 to 100 scale",0
same,"Oat, Wild plant response rating (0-100)",[8]; [29],0
same,Barnyardgrass plant response rating,"[9]; 16 g ai/ha, 0 to 100 scale",0
same,Barnyardgrass plant response rating (0-100),[9]; [29],10
same,"Pigweed, Palmer plant response rating","[10]; 16 g ai/ha, 0 to 100 scale",0
same,"Pigweed, Palmer plant response rating (0-100)",[10]; [29],0
same,Blackgrass plant response rating,"[11]; 16 g ai/ha, 0 to 100 scale",0
same,Blackgrass plant response rating (0-100),[11]; [29],0
same,"Plant response rating, Rice (0 to 100 scale, 0 is no effect and 100 is complete control)",[12],0
same,"Plant response rating, Sedge, Umbrella (0 to 100 scale, 0 is no effect and 100 is complete control)",[13],0
same,"Plant response rating, Ducksalad (0 to 100 scale, 0 is no effect and 100 is complete control)",[14],0
same,"Plant response rating, Barnyardgrass (0 to 100 scale, 0 is no effect and 100 is complete control)",[15],0
same,Galium plant response rating (0-100),[16]; [30],10
same,Galium plant response rating (0 to 100 scale),[16]; [31],0
same,Kochia plant response rating (0-100),[17]; [30],40
same,Kochia plant response rating (0 to 100 scale),[17]; [31],0
same,"Ryegrass, Italian plant response rating (0-100)",[18]; [30],40
same,"Ryegrass, Italian plant response rating (0 to 100 scale)",[18]; [31],0
same,Wheat plant response rating (0-100),[19]; [30],50
same,Wheat plant response rating (0 to 100 scale),[19]; [31],0
same,Corn plant response rating (0-100),[20]; [30],30
same,Corn plant response rating (0 to 100 scale),[20]; [31],0
same,Ragweed plant response rating (0-100),[21]; [30],20
same,Ragweed plant response rating (0 to 100 scale),[21]; [31],0
same,Soybean plant response rating (0-100),[22]; [30],30
same,Soybean plant response rating (0 to 100 scale),[22]; [31],0
same,Horseweed plant response rating (0-100),[23]; [30],0
same,Horseweed plant response rating (0 to 100 scale),[23]; [31],10
same,"Foxtail, Green plant response rating (0-100)",[24]; [30],20
same,"Foxtail, Green plant response rating (0 to 100 scale)",[24]; [31],0
same,"Oat, Wild plant response rating (0-100)",[25]; [30],20
same,"Oat, Wild plant response rating (0 to 100 scale)",[25]; [31],0
same,Barnyardgrass plant response rating (0-100),[26]; [30],40
same,Barnyardgrass plant response rating (0 to 100 scale),[26]; [31],0
same,"Pigweed, Palmer plant response rating (0-100)",[27]; [30],50
same,"Pigweed, Palmer plant response rating (0 to 100 scale)",[27]; [31],0
same,Blackgrass plant response rating (0-100),[28]; [30],10
same,Blackgrass plant response rating (0 to 100 scale),[28]; [31],0

# Source: patent US20260285850A1, “SUBSTITUTED OXAZOLIDINONES AND IMIDAZOLINONES AS HERBICIDES” (FMC CORPORATION, priority 2023, published 2026)
